Reference: patent US20090264452A1 (priority 2004, published 2009)
Where a name gives a salt, the structure may show the parent alone.

Target: T1, human cannabinoid CB2 receptor (Homo sapiens, UniProt P34972)
T1 construct: expressed in transfected cells; host or cells: Saccharomyces cerevisiae strain MMY23 (integration at the ura3 locus, GPD promoter)
Assay: Cannabinoid CB2 receptor agonist activity, yeast reporter assay
Assay type: cell-based
Conditions: for Emax: relative to HU210, yeast cells expressing human CB2, read-out: efficacy value (Emax) at the cloned human cannabinoid CB2 receptor; for EC50: yeast (Saccharomyces cerevisiae) cells expressing human CB2, agonist, read-out: EC50 at the cloned human cannabinoid CB2 receptor
Experimental: The cannabinoid CB2 receptor agonist activity of the compounds of formula (I) was determined in accordance with the following experimental method.
Yeast (Saccharomyces cerevisiae) cells expressing the human cannabinoid CB2 receptor were generated by integration of an expression cassette into the ura3 chromosomal locus of yeast strain MMY23. This cassette consisted of DNA sequence encoding the human CB2 receptor flanked by the yeast GPD promoter to the 5′ end of CB2 and a yeast transcriptional terminator sequence to the 3′ end of CB2. MMY23 expresses a yeast/mammalian chimeric G-protein alpha subunit in which the C-terminal 5 amino acids of Gpa1 are replaced with the C-terminal 5 amino acids of human Gαi3 (as described in Brown et al. (2000), Yeast 16:11-22). Cells were grown at 30° C. in liquid Synthetic Complete (SC) yeast media (Guthrie and Fink (1991), Methods in Enzymology, Vol. 194) lacking uracil, tryptophan, adenine and leucine to late logarithmic phase (approximately 6 OD600/ml).
Agonists were prepared as 10 mM stocks in DMSO. EC50 values (the concentration required to produce 50% maximal response) were estimated using dilutions of between 3- and 5-fold (BiomekFX, Beckman) into DMSO. Agonist solutions in DMSO (1% final assay volume) were transferred into black, clear bottom, microtitre plates from NUNC (96- or 384-well). Cells were suspended at a density of 0.2 OD600/ml in SC media lacking histidine, uracil, tryptophan, adenine and leucine and supplemented with 10 mM 3-aminotriazole, 0.1M sodium phosphate pH 7.0, and […] fluorescein di-β-D-glucopyranoside (FDGlu). This mixture (50 ul per well for 384-well plates, 200 ul per well for 96-well plates) was added to agonist in the assay plates (Multidrop 384, Labsystems). After incubation at 30° C. for 24 hours, fluorescence resulting from degradation of FDGlu to fluorescein due to exoglucanase, an endogenous yeast enzyme produced during agonist-stimulated cell growth, was determined using a Spectrofluor microtitre plate reader (Tecan; excitation wavelength: 485 nm; emission wavelength: 535 nm). Fluorescence was plotted against compound concentration an iteratively curve fitted using a four parameter fit to generate a concentration effect value. Efficacy (Emax) was calculated from the equation
Emax=Max[compound X]−Min[compound X]/Max[HU210]−Min[HU210]×100%
where Max[compound X] and Min[compound X] are the fitted maximum and minimum respectively from the concentration effect curve for compound X, and Max[HU210] and Min[HU210] are the fitted maximum and minimum respectively from the concentration effect curve for (6aR,10aR)-3-(1,1′-Dimethylheptyl)-6a,7,10,10a-tetrahydro-1-hydroxy-6,6-dimethyl-6H-dibenzo[b,d]pyran-9-methanol (HU210; available from Tocris). Equieffective molar ratio (EMR) values were calculated from the equation
Where EC50 [compound X] is the EC50 of compound X and EC50 [HU210] is the EC50 of HU210.

T1 sequence (P34972 whole entry): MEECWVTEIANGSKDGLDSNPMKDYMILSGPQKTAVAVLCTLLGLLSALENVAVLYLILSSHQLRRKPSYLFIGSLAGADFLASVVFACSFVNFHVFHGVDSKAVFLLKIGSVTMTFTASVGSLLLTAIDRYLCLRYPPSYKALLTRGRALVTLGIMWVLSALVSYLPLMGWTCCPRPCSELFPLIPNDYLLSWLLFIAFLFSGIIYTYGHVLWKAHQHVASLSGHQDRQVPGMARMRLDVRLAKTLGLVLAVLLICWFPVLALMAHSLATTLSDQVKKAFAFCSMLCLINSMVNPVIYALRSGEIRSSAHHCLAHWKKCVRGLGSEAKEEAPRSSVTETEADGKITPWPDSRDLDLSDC

| Compound | Emax [%] | EC50 [nM] |
| --- | --- | --- |
| CC(C)c1nc(Nc2cccc(Cl)c2)ncc1C(=O)NCC1CCCCC1 [Example 1] | > 50 | < 300 |
| CC(C)c1nc(Nc2cccc(Cl)c2)ncc1C(=O)NCC1CCOCC1 [Example 2, 2-(3-Chlorophenylamino)-4-isopropylpyrimidin-5-carboxylic acid (tetrahydro-pyran-4-ylmethyl)-amide] | > 50 | < 300 |
| CCc1nc(Nc2cccc(Cl)c2)ncc1C(=O)NCC1CCCCC1 [Example 3] | > 50 | < 300 |
| CCc1nc(Nc2cccc(Cl)c2)ncc1C(=O)NCC1CCOCC1 [Example 4, 2-(3-Chlorophenylamino)-4-ethylpyrimidin-5-carboxylic acid (tetrahydro-pyran-4-ylmethyl)-amide] | > 50 | 300 to 1000 |
| CC(c1nc(Nc2cccc(Cl)c2)ncc1C(=O)NCC1CCOCC1)N(C)C (stereo not shown) [Example 5, 2-[(3-chlorophenyl)amino]-4-[1-(dimethylamino)ethyl]-N-(tetrahydro-2H-pyran-4-ylmethyl)-5-pyrimidinecarboxamide hydrochloride] | < 50 | > 1000 |
